Experimental data reported in US9452225B2, “GLP-1 prodrugs” (Novo Nordisk A/S, priority 2012, dated 2016).
Numbered stars: 1 amine (or outer) side, 2 acyl side, 3 side chain; on linkers, the order of the positions; unused ones are H or OH. Square brackets hold non-standard residues; d marks the D form. Side chains are listed from the residue outwards. Peptide text beside a SMILES is read from it. * marks the point of attachment. Lactoyl(3-(imidazol-4-yl)) = O=C([C@@H](O)Cc1c[nH]cn1)*; C18 diacid = O=C(O)CCCCCCCCCCCCCCCCC(=O)*; γGlu = O=C(O)[C@H](CCC(=O)[*:2])N[*:1]; AEEA = NCCOCCOCC(=O)O; Aib = CC(C)(N)C(=O)O

Tests used:
human GLP-1 receptor [1] = molecular target: T1, human GLP-1 receptor (Homo sapiens, UniProt P43220); assay: GLP-1 receptor binding, SPA displacement of 125I-GLP-1, low albumin; settings: low albumin (0.005% HSA)
T1 construct: expressed in transfected cells; host or cells: BHK cells, clone FCW467-12A (parent line BHKTS13), membranes
Procedure: The purpose of this experiment is to test the receptor binding activity of the GLP-1 parent drugs of the prodrugs of the invention. The receptor binding is a measure of affinity of a parent drug for the human GLP-1 receptor. The parent GLP-1 drugs of Examples B2.1, B2.2, B2.3, B2.4, and B2.5 were tested as described below.
The receptor binding of the GLP-1 drugs to the human GLP-1 receptor was measured in a competitive binding assay. In this type of assay a labelled ligand (in this case ^125I-GLP-1) is bound to the receptor. Each drug is added in a series of concentrations to isolated membranes containing the human GLP-1 receptor and displacement of the labelled ligand is monitored. The receptor binding is reported as the concentration at which half of the labelled ligand is displaced from the receptor, the IC50 value. […]
The cells were grown at 5% CO2 in DMEM, 10% fetal calf serum, 1% Pen/Strep (Penicillin/Streptomycin) and 1.0 mg/ml of the selection marker G418. […] The resulting pellet was re-suspended in buffer 2 and the protein concentration was determined. […]

human GLP-1 receptor [2] = molecular target: T1, human GLP-1 receptor; assay: In vitro potency, CRE luciferase reporter gene assay in whole BHK cells; assay type: cell-based; settings: 0% HSA
Procedure: The purpose of this example is to test the activity, or potency, of, for example, the GLP-1 parent drugs of the prodrugs of the invention. The in vitro potency is the measure of human GLP-1 receptor activation in a whole cell assay. This method is an alternative to the method of Example 8.
In vitro potency was determined by measuring the response of the human GLP-1 receptor in a reporter gene assay. The assay was performed in a stably transfected BHK cell line that expresses the human GLP-1 receptor and contains the DNA for the cAMP response element (CRE) coupled to a promoter and the gene for firefly luciferase (CRE luciferase). When the human GLP-1 receptor is activated it results in the production of cAMP, which in turn results in the luciferase protein being expressed. When assay incubation is completed the luciferase substrate (luciferin) is added and the enzyme converts luciferin to oxyluciferin to produce bioluminescence. The luminescence is measured as the readout for the assay.
In order to test the binding of the derivatives to albumin, the assay may if desired be performed in the absence of serum albumin as well as in the presence of a considerably higher concentration of serum albumin (1.0% final assay concentration). […]
3) The cells were counted and adjusted to 5×10^3 cells/50 μl (1×10^5 cells/ml) in Assay Medium. […]

T1 sequence (P43220 24-463): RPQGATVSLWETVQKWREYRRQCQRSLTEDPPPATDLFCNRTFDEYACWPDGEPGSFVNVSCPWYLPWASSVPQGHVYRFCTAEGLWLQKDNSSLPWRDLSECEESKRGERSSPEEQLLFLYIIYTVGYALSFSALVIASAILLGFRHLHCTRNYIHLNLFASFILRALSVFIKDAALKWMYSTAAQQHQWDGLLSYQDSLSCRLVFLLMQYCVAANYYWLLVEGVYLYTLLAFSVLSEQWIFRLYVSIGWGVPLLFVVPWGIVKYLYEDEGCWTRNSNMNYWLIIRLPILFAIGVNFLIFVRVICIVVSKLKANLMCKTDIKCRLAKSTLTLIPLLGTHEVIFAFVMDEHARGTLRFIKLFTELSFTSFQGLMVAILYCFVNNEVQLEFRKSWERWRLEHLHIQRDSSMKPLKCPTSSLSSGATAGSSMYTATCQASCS

IC50 (human GLP-1 receptor [1]) [nM]	EC50 (human GLP-1 receptor [2]) [pM]	SMILES
0.09	4	CC[C@H](C)[C@H](NC(=O)[C@H](Cc1ccccc1)NC(=O)[C@H](CCCCNC(=O)COCCOCCNC(=O)COCCOCCNC(=O)CC[C@H](NC(=O)CCCCCCCCCCCCCCCCC(=O)O)C(=O)O)NC(=O)[C@H](CCCNC(=N)N)NC(=O)[C@H](C)NC(=O)[C@H](C)NC(=O)[C@H](CCC(N)=O)NC(=O)[C@H](CCC(=O)O)NC(=O)[C@H](CCC(=O)O)NC(=O)[C@H](CC(C)C)NC(=O)[C@H](Cc1ccc(O)cc1)NC(=O)[C@H](CO)NC(=O)[C@H](CO)NC(=O)[C@@H](NC(=O)[C@H](CC(=O)O)NC(=O)[C@H](CO)NC(=O)[C@@H](NC(=O)[C@H](Cc1ccccc1)NC(=O)[C@@H](NC(=O)CNC(=O)[C@H](CCC(=O)O)NC(=O)C(C)(C)NC(=O)[C@@H](O)Cc1c[nH]cn1)[C@@H](C)O)[C@@H](C)O)C(C)C)C(=O)N[C@@H](C)C(=O)N[C@@H](Cc1c[nH]c2ccccc12)C(=O)N[C@@H](CC(C)C)C(=O)N[C@H](C(=O)N[C@@H](CCCNC(=N)N)C(=O)NCC(=O)N[C@@H](CCCNC(=N)N)C(=O)NCC(=O)O)C(C)C [Example B2.4, N^ε27 [(S)-(22,40-dicarboxy-10,19,24-trioxo-3,6,12,15-tetraoxa-9,18,23-triazatetracontan-1-oyl)]-N^α8-{3-[(2S)-2-hydroxy-3-(1H-imidazol-4-yl)propanoyl}-Aib^8,Glu^22,Arg^26,Lys^27,Arg^34]-GLP-1-(8-37)-peptide] ({Lactoyl(3-(imidazol-4-yl))}-[Aib]EGTFTSDVSSYLEEQAARK([AEEA-AEEA-γGlu-C18 diacid])FIAWLVRGRG-OH; C-terminus assumed)
0.22	31	CC[C@H](C)[C@H](NC(=O)[C@H](Cc1ccccc1)NC(=O)[C@H](CCC(=O)O)NC(=O)[C@H](CCCCNC(=O)COCCOCCNC(=O)COCCOCCNC(=O)CC[C@H](NC(=O)CCCCCCCCCCCCCCCCC(=O)O)C(=O)O)NC(=O)[C@H](C)NC(=O)[C@H](C)NC(=O)[C@H](CCCNC(=N)N)NC(=O)CNC(=O)[C@H](CCC(=O)O)NC(=O)[C@H](CC(C)C)NC(=O)[C@H](Cc1ccc(O)cc1)NC(=O)[C@H](CO)NC(=O)[C@H](CO)NC(=O)[C@@H](NC(=O)[C@H](CC(=O)O)NC(=O)[C@H](CO)NC(=O)[C@@H](NC(=O)[C@H](Cc1ccccc1)NC(=O)[C@@H](NC(=O)CNC(=O)[C@H](CCC(=O)O)NC(=O)C(C)(C)NC(=O)[C@@H](O)Cc1c[nH]cn1)[C@@H](C)O)[C@@H](C)O)C(C)C)C(=O)N[C@@H](C)C(=O)N[C@@H](Cc1c[nH]c2ccccc12)C(=O)N[C@@H](CC(C)C)C(=O)N[C@H](C(=O)N[C@@H](CCCNC(=N)N)C(=O)NCC(=O)N[C@@H](CCCNC(=N)N)C(=O)NCC(=O)O)C(C)C [Example B2.5, N^ε26 [(S)-(22,40-dicarboxy-10,19,24-trioxo-3,6,12,15-tetraoxa-9,18,23-triazatetracontan-1-oyl)]-N^α8-{3-[(2S)-2-hydroxy-3-(1H-imidazol-4-yl)propanoyl}-Aib^8,Arg^23,Arg^34]-GLP-1-(8-37)-peptide] ({Lactoyl(3-(imidazol-4-yl))}-[Aib]EGTFTSDVSSYLEGRAAK([AEEA-AEEA-γGlu-C18 diacid])EFIAWLVRGRG-OH; C-terminus assumed)
